Measured values: patent US12247045B2, “MAP4K4 inhibitors” (Imperial College Innovations Limited, priority 2018, dated 2025)
Where two headings read alike, the source gives them in different places.

Tests used:
Format in all cases: biochemical
[1] = molecular target: T1, human MAP4K4 kinase domain (Homo sapiens, UniProt O95819); experiment: MAP4K4 kinase activity, CisBio HTRF Transcreener ADP assay
T1 construct: 0.5 nM human MAP4K4 kinase domain (Invitrogen); purchased Invitrogen
Outline: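 HTRF Transcreener ADP read-out (665/620 nm ratio) of ADP formed by 0.5 nM kinase domain with 1 μM biotin-myelin basic protein substrate and ATP at Km (10 μM), 1% DMSO, 2 h reaction. IC50 values binned as A ≤100 nM, B 100 nM–1 μM, C >1 μM.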

MINK1/MAP4K6 = MINK1/MAP4K6 (Homo sapiens, UniProt Q8N4C8); experiment: Kinase selectivity panel, MINK1/MAP4K6; settings: read-out: pIC50 MINK1/MAP4K6 (converted)
Description: (§1) The data in Table 42 also provides the fold selectivity of the two compounds in favour of MAP4K4 over the tested kinase. The fold selectivity is indicated in parenthesis.

TNIK/MAP4K7 = TNIK/MAP4K7 (Homo sapiens, UniProt Q9UKE5); experiment: Kinase selectivity panel, TNIK/MAP4K7; settings: read-out: pIC50 TNIK/MAP4K7 (converted)
Description: as §1

GCK/MAP4K2 = molecular target: T2, GCK/MAP4K2 (Homo sapiens, UniProt Q12851); experiment: Kinase selectivity panel, GCK/MAP4K2; settings: for fold selectivity MAP4K4 over GCK/MAP4K2: in favour of MAP4K4; for IC50: read-out: pIC50 GCK/MAP4K2 (converted)
T2 sequence (Q12851 1-820): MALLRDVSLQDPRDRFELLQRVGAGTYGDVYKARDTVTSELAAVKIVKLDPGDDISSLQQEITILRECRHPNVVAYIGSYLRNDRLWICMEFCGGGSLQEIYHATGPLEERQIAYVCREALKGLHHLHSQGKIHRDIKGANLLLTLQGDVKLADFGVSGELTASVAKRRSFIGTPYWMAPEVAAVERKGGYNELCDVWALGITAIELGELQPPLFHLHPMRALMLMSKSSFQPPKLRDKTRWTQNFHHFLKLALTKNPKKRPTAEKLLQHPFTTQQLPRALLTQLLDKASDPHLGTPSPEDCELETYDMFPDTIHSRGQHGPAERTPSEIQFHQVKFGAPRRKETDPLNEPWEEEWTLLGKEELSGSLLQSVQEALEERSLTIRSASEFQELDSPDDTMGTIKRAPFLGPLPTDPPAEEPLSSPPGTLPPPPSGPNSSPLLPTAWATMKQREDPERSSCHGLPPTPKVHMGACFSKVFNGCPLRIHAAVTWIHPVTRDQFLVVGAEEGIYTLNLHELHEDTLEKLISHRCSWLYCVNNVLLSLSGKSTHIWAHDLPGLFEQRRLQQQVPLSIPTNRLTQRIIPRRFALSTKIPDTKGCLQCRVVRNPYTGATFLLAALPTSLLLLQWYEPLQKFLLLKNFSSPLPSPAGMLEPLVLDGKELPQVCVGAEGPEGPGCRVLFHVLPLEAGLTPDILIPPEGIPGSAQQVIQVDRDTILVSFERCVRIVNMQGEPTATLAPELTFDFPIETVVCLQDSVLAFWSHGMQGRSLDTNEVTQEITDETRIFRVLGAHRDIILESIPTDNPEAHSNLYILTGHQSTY
Description: as §1

GLK/MAP4K3 = molecular target: T3, GLK/MAP4K3 (Homo sapiens, UniProt Q8IVH8); experiment: Kinase selectivity panel, GLK/MAP4K3; settings: in favour of MAP4K4
T3 sequence (Q8IVH8 1-894): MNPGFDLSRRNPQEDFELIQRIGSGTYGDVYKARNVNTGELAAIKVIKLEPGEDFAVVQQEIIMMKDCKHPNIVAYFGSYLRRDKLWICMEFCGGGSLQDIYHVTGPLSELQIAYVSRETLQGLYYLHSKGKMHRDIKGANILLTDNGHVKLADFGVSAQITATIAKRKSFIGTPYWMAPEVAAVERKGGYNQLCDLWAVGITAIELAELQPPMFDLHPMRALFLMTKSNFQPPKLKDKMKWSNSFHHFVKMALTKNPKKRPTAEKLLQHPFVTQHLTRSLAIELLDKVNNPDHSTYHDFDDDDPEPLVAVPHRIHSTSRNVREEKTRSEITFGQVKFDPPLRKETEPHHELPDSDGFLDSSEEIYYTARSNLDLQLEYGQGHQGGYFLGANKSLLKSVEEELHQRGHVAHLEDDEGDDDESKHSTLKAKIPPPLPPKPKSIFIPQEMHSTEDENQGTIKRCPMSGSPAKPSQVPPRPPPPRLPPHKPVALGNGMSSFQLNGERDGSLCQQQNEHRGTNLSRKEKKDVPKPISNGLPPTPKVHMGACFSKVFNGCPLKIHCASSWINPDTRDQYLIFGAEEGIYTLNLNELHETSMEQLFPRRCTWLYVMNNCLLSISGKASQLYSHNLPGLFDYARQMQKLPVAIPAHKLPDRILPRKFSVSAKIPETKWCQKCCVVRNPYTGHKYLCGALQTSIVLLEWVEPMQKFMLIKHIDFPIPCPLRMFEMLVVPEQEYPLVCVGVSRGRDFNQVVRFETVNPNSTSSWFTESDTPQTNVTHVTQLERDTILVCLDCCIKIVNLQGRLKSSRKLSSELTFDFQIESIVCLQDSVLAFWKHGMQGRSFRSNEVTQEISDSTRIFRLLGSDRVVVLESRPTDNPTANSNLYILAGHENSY
Description: as §1

KHS/MAP4K5 = KHS/MAP4K5 (Homo sapiens, UniProt Q9Y4K4); experiment: Kinase selectivity panel, KHS/MAP4K5; settings: for fold selectivity MAP4K4 over KHS/MAP4K5: in favour of MAP4K4; for IC50: read-out: pIC50 KHS/MAP4K5 (converted)
Chain of KHS/MAP4K5 (Q9Y4K4 whole entry): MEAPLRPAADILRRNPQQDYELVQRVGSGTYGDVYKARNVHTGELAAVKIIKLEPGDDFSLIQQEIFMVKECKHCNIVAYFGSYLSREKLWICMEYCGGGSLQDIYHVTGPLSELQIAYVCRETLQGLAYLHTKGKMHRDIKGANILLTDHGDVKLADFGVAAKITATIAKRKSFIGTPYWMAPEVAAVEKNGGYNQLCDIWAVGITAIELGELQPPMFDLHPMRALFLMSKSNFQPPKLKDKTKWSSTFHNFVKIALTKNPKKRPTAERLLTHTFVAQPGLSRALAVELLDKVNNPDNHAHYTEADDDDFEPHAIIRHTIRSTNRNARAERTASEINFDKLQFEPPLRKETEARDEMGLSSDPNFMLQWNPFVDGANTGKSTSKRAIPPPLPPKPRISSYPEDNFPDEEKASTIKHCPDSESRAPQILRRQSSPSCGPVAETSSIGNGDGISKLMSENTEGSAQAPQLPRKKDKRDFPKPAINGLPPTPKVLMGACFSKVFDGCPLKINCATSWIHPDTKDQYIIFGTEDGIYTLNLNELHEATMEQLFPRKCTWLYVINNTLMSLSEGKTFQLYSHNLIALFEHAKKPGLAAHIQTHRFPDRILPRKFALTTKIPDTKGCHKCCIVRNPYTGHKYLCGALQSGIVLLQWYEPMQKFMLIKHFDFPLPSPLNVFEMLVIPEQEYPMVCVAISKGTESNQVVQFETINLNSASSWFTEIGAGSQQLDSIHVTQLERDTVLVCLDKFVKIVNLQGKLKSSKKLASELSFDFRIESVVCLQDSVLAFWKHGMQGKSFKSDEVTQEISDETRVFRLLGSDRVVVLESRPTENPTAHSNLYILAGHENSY
Description: as §1

Aurora B = Aurora B (Homo sapiens, UniProt Q96GD4); experiment: Kinase selectivity panel, Aurora B; settings: for fold selectivity MAP4K4 over Aurora B: in favour of MAP4K4
Chain of Aurora B (Q96GD4 whole entry): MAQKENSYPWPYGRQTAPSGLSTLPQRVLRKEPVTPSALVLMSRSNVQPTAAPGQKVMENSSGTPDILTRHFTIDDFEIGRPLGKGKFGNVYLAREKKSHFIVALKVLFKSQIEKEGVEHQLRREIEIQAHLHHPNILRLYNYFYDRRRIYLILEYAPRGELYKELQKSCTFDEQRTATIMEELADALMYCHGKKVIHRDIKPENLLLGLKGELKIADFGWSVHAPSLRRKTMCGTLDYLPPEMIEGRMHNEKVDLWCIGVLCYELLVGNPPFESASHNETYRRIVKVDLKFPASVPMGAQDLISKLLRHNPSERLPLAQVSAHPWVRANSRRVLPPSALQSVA
Description: as §1

MLK1/MAP3K9 = MLK1/MAP3K9 (Homo sapiens, UniProt P80192); experiment: Kinase selectivity panel, MLK1/MAP3K9; settings: for fold selectivity MAP4K4 over MLK1/MAP3K9: in favour of MAP4K4; for IC50: read-out: pIC50 MLK1/MAP3K9 (converted)
Chain of MLK1/MAP3K9 (P80192 whole entry): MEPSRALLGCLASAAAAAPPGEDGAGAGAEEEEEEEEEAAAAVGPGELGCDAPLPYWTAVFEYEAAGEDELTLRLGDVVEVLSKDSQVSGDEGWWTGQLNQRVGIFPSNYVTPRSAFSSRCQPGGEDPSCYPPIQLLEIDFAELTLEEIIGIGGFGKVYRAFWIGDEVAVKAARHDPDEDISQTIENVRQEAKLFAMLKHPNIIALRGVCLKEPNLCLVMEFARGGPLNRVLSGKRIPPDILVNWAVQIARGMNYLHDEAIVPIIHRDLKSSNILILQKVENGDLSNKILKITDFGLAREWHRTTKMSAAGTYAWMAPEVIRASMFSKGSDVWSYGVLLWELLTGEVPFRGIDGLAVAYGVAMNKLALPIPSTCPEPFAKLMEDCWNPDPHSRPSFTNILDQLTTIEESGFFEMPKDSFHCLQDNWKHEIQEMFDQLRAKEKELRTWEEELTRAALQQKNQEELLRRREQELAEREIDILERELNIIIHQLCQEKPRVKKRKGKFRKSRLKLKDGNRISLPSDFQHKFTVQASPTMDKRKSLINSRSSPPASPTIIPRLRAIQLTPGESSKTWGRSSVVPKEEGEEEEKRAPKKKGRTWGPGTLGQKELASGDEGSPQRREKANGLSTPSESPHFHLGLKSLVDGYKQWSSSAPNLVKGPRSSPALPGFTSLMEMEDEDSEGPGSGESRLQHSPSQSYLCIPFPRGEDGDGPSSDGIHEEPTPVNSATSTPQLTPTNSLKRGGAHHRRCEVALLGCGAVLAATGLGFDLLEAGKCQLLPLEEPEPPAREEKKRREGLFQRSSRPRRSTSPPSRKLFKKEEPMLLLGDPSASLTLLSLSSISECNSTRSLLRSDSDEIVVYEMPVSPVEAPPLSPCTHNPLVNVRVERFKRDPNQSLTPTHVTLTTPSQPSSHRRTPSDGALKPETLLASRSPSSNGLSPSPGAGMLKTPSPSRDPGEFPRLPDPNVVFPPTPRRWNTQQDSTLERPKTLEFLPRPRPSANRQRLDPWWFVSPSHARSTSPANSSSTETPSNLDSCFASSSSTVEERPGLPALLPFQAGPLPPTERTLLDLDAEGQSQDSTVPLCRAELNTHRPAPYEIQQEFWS
Description: as §1

MLK3/MAP3K11 = MLK3/MAP3K11 (Homo sapiens, UniProt Q16584); experiment: Kinase selectivity panel, MLK3/MAP3K11; settings: for fold selectivity MAP4K4 over MLK3/MAP3K11: in favour of MAP4K4; for IC50: read-out: pIC50 MLK3/MAP3K11 (converted)
Chain of MLK3/MAP3K11 (Q16584 whole entry): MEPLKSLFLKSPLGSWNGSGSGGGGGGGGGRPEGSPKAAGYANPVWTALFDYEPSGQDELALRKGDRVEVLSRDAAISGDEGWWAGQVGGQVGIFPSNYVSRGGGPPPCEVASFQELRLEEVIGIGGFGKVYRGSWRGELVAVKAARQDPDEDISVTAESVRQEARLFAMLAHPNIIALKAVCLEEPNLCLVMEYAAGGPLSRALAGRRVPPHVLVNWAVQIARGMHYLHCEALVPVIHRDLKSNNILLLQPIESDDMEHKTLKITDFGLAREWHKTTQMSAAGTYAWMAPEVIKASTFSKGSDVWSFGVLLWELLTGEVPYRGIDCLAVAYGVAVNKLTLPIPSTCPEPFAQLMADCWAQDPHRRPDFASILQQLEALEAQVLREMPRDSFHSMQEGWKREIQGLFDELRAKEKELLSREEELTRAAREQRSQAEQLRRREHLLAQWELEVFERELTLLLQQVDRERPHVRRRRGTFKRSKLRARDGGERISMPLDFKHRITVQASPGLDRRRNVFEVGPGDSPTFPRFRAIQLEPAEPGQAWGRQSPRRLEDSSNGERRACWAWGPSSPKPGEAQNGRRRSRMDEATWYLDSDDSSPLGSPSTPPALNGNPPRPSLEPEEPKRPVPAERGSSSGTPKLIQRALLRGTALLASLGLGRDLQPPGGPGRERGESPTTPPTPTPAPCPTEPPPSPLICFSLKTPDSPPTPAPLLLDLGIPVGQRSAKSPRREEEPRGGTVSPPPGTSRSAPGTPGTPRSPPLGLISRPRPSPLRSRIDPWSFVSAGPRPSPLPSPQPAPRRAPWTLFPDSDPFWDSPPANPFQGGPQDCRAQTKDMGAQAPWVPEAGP
Description: as §1

NUAK1 = molecular target: T4, NUAK1 (Homo sapiens, UniProt O60285); experiment: Kinase selectivity panel, NUAK1; settings: for fold selectivity MAP4K4 over NUAK1: in favour of MAP4K4; for IC50: read-out: pIC50 NUAK1 (converted)
T4 sequence (O60285 1-661): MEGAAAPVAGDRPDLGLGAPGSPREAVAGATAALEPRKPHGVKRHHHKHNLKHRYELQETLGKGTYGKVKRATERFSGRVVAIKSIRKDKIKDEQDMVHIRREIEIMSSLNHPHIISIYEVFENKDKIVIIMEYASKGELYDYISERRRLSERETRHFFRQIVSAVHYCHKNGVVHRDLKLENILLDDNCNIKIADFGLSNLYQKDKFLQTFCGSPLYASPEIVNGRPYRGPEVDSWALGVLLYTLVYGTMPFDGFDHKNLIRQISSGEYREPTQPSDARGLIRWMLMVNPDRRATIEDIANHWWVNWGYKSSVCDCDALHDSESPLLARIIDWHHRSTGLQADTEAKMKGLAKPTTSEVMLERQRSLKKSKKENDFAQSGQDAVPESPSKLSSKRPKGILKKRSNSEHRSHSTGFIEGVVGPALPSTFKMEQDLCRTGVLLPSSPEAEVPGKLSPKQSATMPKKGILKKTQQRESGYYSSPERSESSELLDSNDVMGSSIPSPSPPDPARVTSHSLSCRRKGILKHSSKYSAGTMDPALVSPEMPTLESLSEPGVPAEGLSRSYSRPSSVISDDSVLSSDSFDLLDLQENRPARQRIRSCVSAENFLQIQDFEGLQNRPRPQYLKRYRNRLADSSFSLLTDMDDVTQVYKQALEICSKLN
Description: as §1

ABL1 = ABL1 (Homo sapiens, UniProt P00519); experiment: Kinase selectivity panel, ABL1
Chain of ABL1 (P00519 whole entry, species assumed): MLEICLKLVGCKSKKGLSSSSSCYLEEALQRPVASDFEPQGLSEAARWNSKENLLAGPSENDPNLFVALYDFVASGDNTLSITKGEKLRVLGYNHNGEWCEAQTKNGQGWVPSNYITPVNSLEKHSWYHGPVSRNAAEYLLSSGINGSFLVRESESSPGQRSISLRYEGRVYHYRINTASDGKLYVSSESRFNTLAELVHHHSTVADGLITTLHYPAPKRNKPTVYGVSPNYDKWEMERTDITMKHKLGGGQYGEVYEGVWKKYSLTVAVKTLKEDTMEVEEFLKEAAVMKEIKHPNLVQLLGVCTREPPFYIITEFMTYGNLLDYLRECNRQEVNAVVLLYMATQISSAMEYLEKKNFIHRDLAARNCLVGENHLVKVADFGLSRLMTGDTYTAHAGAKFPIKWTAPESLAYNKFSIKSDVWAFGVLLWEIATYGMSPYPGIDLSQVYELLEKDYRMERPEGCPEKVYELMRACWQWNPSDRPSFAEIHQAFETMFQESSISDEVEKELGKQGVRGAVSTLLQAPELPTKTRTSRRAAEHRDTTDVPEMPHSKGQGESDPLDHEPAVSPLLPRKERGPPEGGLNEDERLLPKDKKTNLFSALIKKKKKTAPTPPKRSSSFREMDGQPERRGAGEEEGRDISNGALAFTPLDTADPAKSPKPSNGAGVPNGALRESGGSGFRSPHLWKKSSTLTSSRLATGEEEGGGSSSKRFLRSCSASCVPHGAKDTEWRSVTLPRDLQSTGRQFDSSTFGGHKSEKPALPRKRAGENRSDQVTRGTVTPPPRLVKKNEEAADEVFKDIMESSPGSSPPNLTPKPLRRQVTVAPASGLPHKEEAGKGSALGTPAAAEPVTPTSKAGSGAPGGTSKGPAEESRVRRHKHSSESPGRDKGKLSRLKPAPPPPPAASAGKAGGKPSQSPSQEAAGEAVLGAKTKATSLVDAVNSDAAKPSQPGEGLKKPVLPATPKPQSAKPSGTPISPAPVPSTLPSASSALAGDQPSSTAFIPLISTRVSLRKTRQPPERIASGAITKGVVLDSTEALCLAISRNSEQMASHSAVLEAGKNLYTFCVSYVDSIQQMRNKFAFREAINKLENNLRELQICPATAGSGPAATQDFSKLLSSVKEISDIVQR
Description: as §1

[2] = IC50 category, ATP at Km (10 μM), 0.5 nM kinase domain, 2 h, read-out: MAP4K4
[3] = read-out: pIC50 MAP4K4 (converted)

T1 sequence (O95819 25-289 limits assumed): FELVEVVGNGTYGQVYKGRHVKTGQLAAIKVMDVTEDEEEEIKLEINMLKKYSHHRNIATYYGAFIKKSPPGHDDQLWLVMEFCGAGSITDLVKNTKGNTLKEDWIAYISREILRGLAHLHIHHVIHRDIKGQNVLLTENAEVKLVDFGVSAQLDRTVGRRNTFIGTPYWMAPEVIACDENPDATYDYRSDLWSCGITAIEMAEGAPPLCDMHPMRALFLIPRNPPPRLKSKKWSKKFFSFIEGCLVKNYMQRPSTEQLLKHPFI

| SMILES | IC50 [1, 2] [nM] | IC50 [1, 3] [nM] | IC50 (MINK1/MAP4K6) [nM] | IC50 (TNIK/MAP4K7) [nM] | fold selectivity MAP4K4 over GCK/MAP4K2 (GCK/MAP4K2) | IC50 (GCK/MAP4K2) [nM] | fold selectivity MAP4K4 over GLK/MAP4K3 (GLK/MAP4K3) | fold selectivity MAP4K4 over KHS/MAP4K5 (KHS/MAP4K5) | IC50 (KHS/MAP4K5) [nM] | fold selectivity MAP4K4 over Aurora B (Aurora B) | fold selectivity MAP4K4 over MLK1/MAP3K9 (MLK1/MAP3K9) | IC50 (MLK1/MAP3K9) [nM] | fold selectivity MAP4K4 over MLK3/MAP3K11 (MLK3/MAP3K11) | IC50 (MLK3/MAP3K11) [nM] | fold selectivity MAP4K4 over NUAK1 (NUAK1) | IC50 (NUAK1) [nM] | fold selectivity MAP4K4 over ABL1 (ABL1; in favour of MAP4K4) | IC50 (ABL1; read-out: pIC50 ABL1 (converted)) [nM] | IC50 (Aurora B; read-out: pIC50 Aurora B (converted)) [nM] |
| --- | --- | --- | --- | --- | --- | --- | --- | --- | --- | --- | --- | --- | --- | --- | --- | --- | --- | --- | --- |
| COCCOc1ccc(-c2cn(-c3cccc(F)c3)c3nc[nH]c(=O)c23)cn1 [Ex-29] | ≤ 100 | 20 | 12.6 | 31.6 | (50) fold | 1000 | (>1000) fold | (50) fold | 1000 | (>1000) fold | (20) fold | 398 | (25) fold | 501 | (16) fold | 316 | – | – | – |
| COCCOc1ccc(-c2cn(-c3ccncc3)c3nc[nH]c(=O)c23)cc1 [Ex-28] | ≤ 100 | 12.6 | 31.6 | 50.1 | (79) fold | 1000 | – | (63) fold | 794 | (501) fold | (398) fold | 5010 | (79) fold | 1000 | (251) fold | 3160 | (501) fold | 6310 | 6310 |
